# Patent US8034314B2, “Photoreactive compound specifically binding to calcium binding proteins” (priority 2004, dated 2011)
# Legend:
# [1] = molecular target: T1, ryanodine receptor (RyR) / Ca2+-release channel (Oryctolagus cuniculus, UniProt P11716); test: [3H]ryanodine binding to SR membranes; set-up: species or system rabbit; conditions: no UV; mean ± SEM of 3 to 5 experiments
# T1 construct: from tissue; host or cells: rabbit fast twitch skeletal muscle SR membranes
# Method: (§1) Sarcoplasmic reticulum (SR) membranes were prepared from rabbit fast twitch skeletal muscle as described by Saito [Saito et al.: J. Cell Biol. 99 (1984) 875-85]. Mitochondria were isolated from rat liver as described by us previously [Gincel D. et al.: Biochem J. 358 (2001) 147-55]. VDAC was purified by a method developed in our laboratory, using columns of hydroxyapatite and reactive red agarose [Gincel D. et al.: J. Bioenerget. Biomembr. 32 (2000) 571-83].
# For the determination of [^3H]ryanodine binding, SR membranes were incubated for 20-60 min at 37° C. in a standard binding solution containing 1M NaCl, 20 mM MOPS (pH 7.4), 50 μM free Ca^2+ and 20 nM [^3H]ryanodine. Unbound ryanodine was separated from protein-bound ryanodine by vacuum filtration of the sample through nitrocellulose filters (0.45 μm), followed by two washes with 4 ml ice-cold buffer containing 0.2 M NaCl, 10 mM MOPS (pH 7.4) and 50 μM CaCl2. The retained radioactivity in the dried filters was determined by liquid scintillation counting. Specific binding of [^3H]ryanodine was defined as the difference between the binding in the presence of 20 nM [^3H]ryanodine and in the presence of 20 μM unlabeled ryanodine.
# (§2) The hexavalent RuR and the trivalent Ru360 have been employed in various studies as inhibitors of Ca^2+-dependent reactions. As shown here, even with no photoactivation, AzRu, in contrast to RuR and Ru360, was effective in inhibiting the SR Ca^2+-pump (Table 3). […] This may open the way to inhibit other Ca^2+-dependent activities that are not sensitive to RuR, such as the plasma membrane Ca^2+-ATPase. […] RuR was employed to improve mitochondrial production in ischemic reperfused pig myocardium, was employed in the nervous system to follow neuronal death progress and can act as an anti-oxidant in certain conditions. Considering the potent activity of AzRu in RuR-insensitive reactions (see Table 3), its applications in various biological studies should be explored. Ca^2+ accumulation in SR and mitochondria was assayed as described above in the absence and presence of different concentrations of RuR (0.05-100 μM), Ru360 (0.01-100 μM) or AzRu (0.1-100 μM). The concentration required for 50% inhibition (IC50) was derived from the plot of Ca^2+ accumulation activity or ryanodine binding as a function of the reagent concentration. The results are the mean±SEM of 3 to 5 experiments (Table 3).
# [2] = tested on: mitochondrial uniporter (Ca2+ uptake in mitochondria); test: Ca2+ uptake/accumulation in isolated mitochondria; assay type: biochemical, rat; conditions: no UV; mean ± SEM of 3 to 5 experiments
# Method: as §1
# Ca^2+-accumulation in freshly prepared mitochondria (0.5 mg/ml) was assayed for 1 to 20 minutes at 30° C. in the presence of 225 mM mannitol, 75 mM sucrose, 120 μM CaCl2 (containing 3×10^4 cpm/nmol ^45Ca^2+), 5 mM HEPES/KOH pH 7.0, and 5 mM succinate with 0.1 mM Pi, or 4 mM MgCl2 with 3 mM ATP. The Ca^2+-uptake was terminated by rapid Millipore filtration, followed by a wash with 5 ml of 0.15 M KCl. The Ca^2+-accumulation in SR was determined as described previously [Shoshan-Barmatz V. & Shaineberg A.: Biochim. Biophys. Acta 1065 (1991) 82-8]. Electron transport from succinate to cytochrome c was described in above cited article [Gincel D. et al.: J. Bioenerget. Biomembr. 32 (2000) 571-83].
# The effect of AzRu on mitochondrial process of electron transport from the donor succinate to the acceptor cytochrome c was characterized as described above. Although said electron transfer involves several dozens electron transfer carriers, this reaction was not affected by azido-ruthenium of this invention.
# as §2
# T1 sequence (P11716 whole entry): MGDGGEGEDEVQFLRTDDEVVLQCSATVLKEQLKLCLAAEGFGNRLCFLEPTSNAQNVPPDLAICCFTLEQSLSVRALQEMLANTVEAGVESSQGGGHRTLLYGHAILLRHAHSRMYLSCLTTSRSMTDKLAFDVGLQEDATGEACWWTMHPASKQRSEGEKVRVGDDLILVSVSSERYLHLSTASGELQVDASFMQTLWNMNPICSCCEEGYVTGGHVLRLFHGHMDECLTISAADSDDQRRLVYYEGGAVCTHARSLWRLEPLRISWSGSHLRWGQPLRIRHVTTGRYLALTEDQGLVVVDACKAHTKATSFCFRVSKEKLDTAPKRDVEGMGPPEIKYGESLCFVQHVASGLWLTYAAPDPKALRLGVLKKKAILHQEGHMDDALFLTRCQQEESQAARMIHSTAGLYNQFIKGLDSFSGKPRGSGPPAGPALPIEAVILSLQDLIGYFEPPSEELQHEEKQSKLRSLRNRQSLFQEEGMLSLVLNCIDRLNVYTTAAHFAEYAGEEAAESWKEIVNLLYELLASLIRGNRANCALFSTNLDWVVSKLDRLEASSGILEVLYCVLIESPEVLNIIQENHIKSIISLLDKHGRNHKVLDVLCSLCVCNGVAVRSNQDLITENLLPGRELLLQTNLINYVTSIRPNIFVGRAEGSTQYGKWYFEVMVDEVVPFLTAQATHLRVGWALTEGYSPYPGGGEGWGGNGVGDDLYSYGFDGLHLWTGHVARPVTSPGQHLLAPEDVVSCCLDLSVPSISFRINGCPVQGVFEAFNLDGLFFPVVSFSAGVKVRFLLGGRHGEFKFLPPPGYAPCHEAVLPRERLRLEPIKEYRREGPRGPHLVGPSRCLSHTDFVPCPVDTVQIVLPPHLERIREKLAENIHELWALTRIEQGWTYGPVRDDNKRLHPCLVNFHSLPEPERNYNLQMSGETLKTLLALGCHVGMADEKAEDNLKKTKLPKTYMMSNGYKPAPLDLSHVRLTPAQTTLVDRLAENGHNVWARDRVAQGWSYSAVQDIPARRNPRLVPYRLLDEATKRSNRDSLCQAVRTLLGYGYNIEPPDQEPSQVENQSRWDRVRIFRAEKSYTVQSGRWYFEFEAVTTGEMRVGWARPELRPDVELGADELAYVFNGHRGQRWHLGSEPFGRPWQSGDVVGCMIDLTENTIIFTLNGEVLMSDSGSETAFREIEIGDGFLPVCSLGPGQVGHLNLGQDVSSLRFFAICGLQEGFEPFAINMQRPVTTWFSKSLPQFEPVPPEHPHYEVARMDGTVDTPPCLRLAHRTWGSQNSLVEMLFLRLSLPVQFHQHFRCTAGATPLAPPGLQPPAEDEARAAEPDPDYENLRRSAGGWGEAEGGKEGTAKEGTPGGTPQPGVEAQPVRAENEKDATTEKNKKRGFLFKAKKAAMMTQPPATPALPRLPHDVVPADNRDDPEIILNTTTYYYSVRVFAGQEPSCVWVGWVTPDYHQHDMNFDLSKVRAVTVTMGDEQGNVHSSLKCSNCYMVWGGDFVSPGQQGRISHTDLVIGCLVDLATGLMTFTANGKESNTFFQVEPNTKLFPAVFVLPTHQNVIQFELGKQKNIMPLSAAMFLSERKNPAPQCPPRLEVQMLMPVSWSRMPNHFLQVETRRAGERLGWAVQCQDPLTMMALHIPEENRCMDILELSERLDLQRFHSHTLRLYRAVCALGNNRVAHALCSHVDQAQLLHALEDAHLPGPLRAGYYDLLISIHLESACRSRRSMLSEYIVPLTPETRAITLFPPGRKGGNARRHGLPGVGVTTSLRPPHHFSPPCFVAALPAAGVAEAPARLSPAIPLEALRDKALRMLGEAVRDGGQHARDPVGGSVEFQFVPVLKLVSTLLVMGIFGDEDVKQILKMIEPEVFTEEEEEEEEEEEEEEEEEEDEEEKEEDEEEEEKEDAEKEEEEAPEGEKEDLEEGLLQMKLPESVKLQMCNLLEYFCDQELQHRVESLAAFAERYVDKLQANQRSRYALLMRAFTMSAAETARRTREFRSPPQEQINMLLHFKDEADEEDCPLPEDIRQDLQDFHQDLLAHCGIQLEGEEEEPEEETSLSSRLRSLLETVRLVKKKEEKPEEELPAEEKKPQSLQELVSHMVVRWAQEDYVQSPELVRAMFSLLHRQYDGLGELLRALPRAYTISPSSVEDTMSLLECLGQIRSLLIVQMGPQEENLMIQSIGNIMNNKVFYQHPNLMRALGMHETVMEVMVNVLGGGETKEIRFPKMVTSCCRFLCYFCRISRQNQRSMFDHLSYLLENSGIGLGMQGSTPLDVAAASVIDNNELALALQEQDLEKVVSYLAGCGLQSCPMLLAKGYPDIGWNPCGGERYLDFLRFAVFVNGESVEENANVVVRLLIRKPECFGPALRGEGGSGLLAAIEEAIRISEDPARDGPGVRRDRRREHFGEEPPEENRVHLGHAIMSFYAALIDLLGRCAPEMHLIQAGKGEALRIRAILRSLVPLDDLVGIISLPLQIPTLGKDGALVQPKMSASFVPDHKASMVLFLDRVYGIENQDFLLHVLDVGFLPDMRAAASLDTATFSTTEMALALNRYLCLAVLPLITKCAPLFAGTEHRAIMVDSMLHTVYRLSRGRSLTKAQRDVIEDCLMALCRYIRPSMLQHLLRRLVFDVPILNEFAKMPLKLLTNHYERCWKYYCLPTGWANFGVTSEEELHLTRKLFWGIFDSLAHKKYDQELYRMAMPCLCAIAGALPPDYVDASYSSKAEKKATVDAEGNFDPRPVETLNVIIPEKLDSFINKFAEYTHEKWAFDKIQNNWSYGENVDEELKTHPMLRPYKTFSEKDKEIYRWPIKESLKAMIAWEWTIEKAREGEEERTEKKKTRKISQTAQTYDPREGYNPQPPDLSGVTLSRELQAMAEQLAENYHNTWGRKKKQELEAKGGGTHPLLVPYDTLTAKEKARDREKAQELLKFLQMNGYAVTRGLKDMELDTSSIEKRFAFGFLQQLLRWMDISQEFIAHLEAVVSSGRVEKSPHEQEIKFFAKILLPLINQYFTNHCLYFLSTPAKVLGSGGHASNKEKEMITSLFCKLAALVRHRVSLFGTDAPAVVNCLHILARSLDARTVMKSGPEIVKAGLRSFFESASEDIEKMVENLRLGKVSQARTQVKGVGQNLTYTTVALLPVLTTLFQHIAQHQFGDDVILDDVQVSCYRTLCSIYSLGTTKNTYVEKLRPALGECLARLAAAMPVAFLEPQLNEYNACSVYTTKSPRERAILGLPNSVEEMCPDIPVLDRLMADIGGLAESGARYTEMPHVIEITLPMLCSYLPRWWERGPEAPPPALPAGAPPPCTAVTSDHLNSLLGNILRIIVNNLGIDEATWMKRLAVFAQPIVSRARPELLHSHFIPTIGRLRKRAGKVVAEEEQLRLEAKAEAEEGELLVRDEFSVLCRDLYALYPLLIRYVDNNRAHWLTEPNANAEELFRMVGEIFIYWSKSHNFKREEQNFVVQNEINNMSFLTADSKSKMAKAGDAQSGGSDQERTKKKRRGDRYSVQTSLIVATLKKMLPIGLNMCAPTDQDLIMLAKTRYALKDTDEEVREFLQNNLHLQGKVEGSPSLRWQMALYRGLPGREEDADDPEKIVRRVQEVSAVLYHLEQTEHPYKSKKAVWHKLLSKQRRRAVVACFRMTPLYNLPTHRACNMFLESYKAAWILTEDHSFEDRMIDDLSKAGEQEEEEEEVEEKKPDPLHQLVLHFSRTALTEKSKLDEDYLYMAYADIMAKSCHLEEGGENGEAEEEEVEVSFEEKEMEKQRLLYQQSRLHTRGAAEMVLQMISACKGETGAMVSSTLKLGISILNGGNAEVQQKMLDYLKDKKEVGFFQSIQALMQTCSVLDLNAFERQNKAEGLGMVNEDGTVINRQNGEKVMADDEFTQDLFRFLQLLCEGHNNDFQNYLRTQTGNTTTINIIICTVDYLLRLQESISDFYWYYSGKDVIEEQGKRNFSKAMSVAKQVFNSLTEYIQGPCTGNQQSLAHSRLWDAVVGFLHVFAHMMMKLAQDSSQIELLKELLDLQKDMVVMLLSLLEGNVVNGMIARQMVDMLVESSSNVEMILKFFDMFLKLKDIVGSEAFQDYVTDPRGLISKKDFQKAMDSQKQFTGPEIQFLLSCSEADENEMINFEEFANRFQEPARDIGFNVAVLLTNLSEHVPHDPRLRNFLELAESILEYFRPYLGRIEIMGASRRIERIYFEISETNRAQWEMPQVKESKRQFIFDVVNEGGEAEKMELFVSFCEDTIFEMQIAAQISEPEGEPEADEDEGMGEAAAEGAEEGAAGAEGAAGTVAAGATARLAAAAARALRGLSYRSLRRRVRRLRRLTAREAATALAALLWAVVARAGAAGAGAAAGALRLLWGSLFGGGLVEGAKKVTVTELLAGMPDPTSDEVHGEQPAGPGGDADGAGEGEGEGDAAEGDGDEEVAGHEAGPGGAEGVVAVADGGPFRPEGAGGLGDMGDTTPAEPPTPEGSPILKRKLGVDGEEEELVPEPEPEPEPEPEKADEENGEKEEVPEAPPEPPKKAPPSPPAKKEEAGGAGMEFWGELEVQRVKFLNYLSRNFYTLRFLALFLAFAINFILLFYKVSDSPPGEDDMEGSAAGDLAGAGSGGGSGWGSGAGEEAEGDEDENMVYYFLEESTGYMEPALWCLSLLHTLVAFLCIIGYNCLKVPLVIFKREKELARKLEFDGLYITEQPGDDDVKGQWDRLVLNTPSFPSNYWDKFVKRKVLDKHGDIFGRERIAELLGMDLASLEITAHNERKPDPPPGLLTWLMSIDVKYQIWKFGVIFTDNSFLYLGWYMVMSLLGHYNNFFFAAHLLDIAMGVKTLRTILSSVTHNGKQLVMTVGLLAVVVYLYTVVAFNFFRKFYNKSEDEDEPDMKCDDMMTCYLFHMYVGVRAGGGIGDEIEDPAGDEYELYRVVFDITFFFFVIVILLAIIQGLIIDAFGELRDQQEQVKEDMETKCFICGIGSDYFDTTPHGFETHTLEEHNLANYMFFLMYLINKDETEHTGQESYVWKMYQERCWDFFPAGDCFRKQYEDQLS
IC50 [1],IC50 [2],Compound
7.2 ± 0.55 µM,0.16 ± 0.03 µM,"Cl.Cl.Cl.Cl.Cl.Cl.N.N.N.N.N.N.N.N.N.N.N.N.N.N.[O-2].[O-2].[Ru+3].[Ru+3].[Ru+4] [RuR, ruthenium red, reference compound]"
14.8 ± 2.8 µM,0.067 ± 0.008 µM,Ru360 [reference compound]
